From US4393210A, “1(2H)-Isoquinolone compounds and acid addition salts thereof” (Seiyaku Co., Ltd., priority 1980, dated 1983)
Counter-ions that a name gives are not always drawn.

Key:
[1] = test system: pain reaction induced by acetic acid injection; test: Analgesic activity, acetic acid stretching method (Koster et al); assay type: in vivo, ddy male mice; settings: oral; for Number of Stretching: n=8, control 36.5 ± 6.5
Method: According to the acetic acid stretching method described by Koster et al [Fed. Pro., 18, 412 (1959)], Compound A was administered orally to ddy male mice (body weight, 20 to 25 g) fasted overnight before test. One hour after administration of Compound A, a 0.6% aqueous acetic acid solution was administered intraperitoneally at a dose of 0.35 ml per mouse and the stretching of the mice was observed 10 minutes after the administration of the acetic acid solution for a period of 10 minutes, and the percent inhibition was calculated.

[2] = test system: histamine-induced contraction, guinea pig ileum; test: Anti-histamine activity, histamine-induced contraction of extracted ileum (Magnus tube); settings: 31° C.; for shift of histamine-induced contraction curve: treatment 30 seconds before inducing contraction; for anti-histamine activity: guinea pig ileum
Method: (§1) The ileum of guinea pig (body weight, 300 to 400 g) was extracted and suspended in a Magnus tobe containing Tyrode's solution (saturated with oxygen) at 31° C. and the inhibitory activity of the test compounds on the contraction induced by administration of histamine or acetylchloline was determined. The treatment with the test compounds was conducted 30 seconds before inducing the contraction.

[3] = test system: contraction induced by acetylchloline, ileum of guinea pig; test: Anti-cholinergic activity, acetylcholine-induced contraction of extracted ileum (Magnus tube); settings: 31° C.
Method: as §1

gastric secretion = test: Gastric secretion inhibitory activity, pylorus ligation; assay type: in vivo, Wister male rats; settings: for pH Value (gastric juice) / Amount of Gastric Juice / Amount of Output Secretion: 4 hours, n=10; for pH Value (gastric juice): control 1.71 ± 0.11; for Amount of Gastric Juice: control 2.51 ± 0.32; for Amount of Gastric Juice / Amount of Output Secretion: **p < 0.01; for Amount of Output Secretion: control 184 ± 27.2; for effect on volume of gastric juice, acid secretion and pH value: Table 2, 100 mg/kg
Method: The pylorus of Wister male rats (body weight, 180 to 200 g) fasted for 24 hours was ligated under ether anesthesia and, immediately thereafter, the test compound was administered into the duodenum. Four hours after the administration, the stomach was extracted and gastric juice was collected and centrifuged at 3,000 r.p.m. for 15 minutes. The volume of gastric juice, the pH value and the amount of output secretion were then determined with respect to the supernatant.

[4] = test system: ulcer generation caused by water-dipping restriction stress; test: Anti-ulcer activity, stress ulcer (water-dipping restriction stress); assay type: in vivo, Wister male rats; settings: for Percent Inhibition (stress ulcer) / Ulcerous Index: oral; for Ulcerous Index: n=6, control 75.8
Method: The test compound was administered orally to Wister male rats (body weight, 200 to 230 g) and then the rats were tied up with a steel wire and dipped in water at 23° C. in a tank to the level of the xiphisternum of rats. After allowing the rats to stand for 7 hours in water, the rats were sacrificed and the stomach was extracted. 10 ml of a 1% formalin solution was injected into the stomach cavity and the stomach was dipped in a 1% formalin solution for 15 minutes to semi-harden the stomach. The stomach was excised along the greater curvature thereof and the ulcer generated in the portion of corpus ventriculi was observed.

Acute toxicity = settings: mouse, in vivo; mice fasted overnight, observed for 7 days; route not stated
Method: The test compound was administered to ddy male mice (body weight, 20 to 25 g) fasted overnight before administration.

[5] = test system: decrease in body temperature induced by administration of reserpine; test: Anti-reserpine (anti-depression) activity, rectal temperature; assay type: in vivo, ddy male mice; settings: oral, 50 and 100 mg/kg; reserpine 2 mg/kg s.c. twice
Method: Reserpine was administered subcutaneously to ddy male mice (body weight, 25 to 30 g) at a dose of 2 mg/kg and, after fasting for 18 hours, reserpine was again administered subcutaneously at a dose of 2 mg/kg. Five hours after the second administration of reserpine, the mice which indicated a constant decrease in body temperature were selected and administered orally with the test compound (Compound C), followed by measuring the rectal temperature of the mice at one hour intervals.
In this experiment, Imipramine (10,11-dihydro-N,N-dimethyl-5H-dibenz[b,f]azepine-5-propanamine) and Amitriptyline [3-(10,11-dihydro-5H-dibenzo[a,d]-cyclohepten-5-ylidene)-N,N-dimethyl-1-propanamine] were used as typical examples of known compounds for comparison and the results obtained with these compounds are also shown in FIG. 1(a).

[6] = test system: indomethacin-induced ulcer; test: Anti-ulcer activity, indomethacin-induced ulcer; assay type: in vivo, Wister male rats; settings: for Percent Inhibition (indomethacin ulcer) / Ulcerous Index: oral; for Ulcerous Index: control 15.4, indomethacin 20 mg/kg s.c.
Method: A suspension of indomechacin in 0.25% CMC was administered subcutaneously at a dose of 20 mg/kg to Wister male rats (body weight, 125 to 150 g) fasted for 24 hours. The test compound was administered orally 30 minutes before the administration of indomethacin. Seven hours after the administration of indomethacin, the rats were sacrificed by dislocation of neck, and the stomach was extracted. 7.5 ml of 1% formalin solution was injected into the stomach cavity, and the stomack was hardened. The linear-type ulcer generated in the mucous membrane of the stomach was then observed.

[7] = 100 mg/kg into the duodenum, *p < 0.05

Question: Which “Number of Stretching” value ([1]; 25 mg/kg) does the source give for CN(C)CCCn1cc(-c2ccccc2)c2ccccc2c1=O [Compound A, 2-(3-N,N-dimethylaminopropyl)-4-phenyl-1(2H)-isoquinolone tartrate] here?
Answer: 33.8 ± 8.2

Question: And the “Percent Inhibition (stretching)” value ([1]; 50 mg/kg)?
Answer: 53.7%

Question: What about the “Number of Stretching” value ([1]; 50 mg/kg, *p < 0.05) of the same compound?
Answer: 16.9 ± 4.8

Question: What about the “Percent Inhibition (stretching)” value ([1]; 100 mg/kg) of the same compound?
Answer: 72.6%

Question: And the “Number of Stretching” value ([1]; 100 mg/kg, **p < 0.01)?
Answer: 10.0 ± 2.8

Question: What about the “inhibition of the pain reaction induced by acetic acid injection” value ([1]; 50 and 100 mg/kg) of the same compound?
Answer: inhibited the pain reaction induced by acetic acid injection

Question: And the “shift of histamine-induced contraction curve” value (shortened to “shift”) [2]?
Answer: shift the hitamine-induced contraction curve determined in guinea pig ileum to the right direction on the figures in parallel

Question: What about the anti-histamine activity [2] of the same compound?
Answer: possess a specific anti-histamine activity

Question: And the anti-cholinergic activity [3]?
Answer: non-specific anti-cholinergic activity

Question: What about the “pH Value (gastric juice)” value (gastric secretion; [7]) of the same compound?
Answer: 3.06 ± 0.44

Question: What about the “Amount of Gastric Juice” value (gastric secretion; 100 mg/kg into the duodenum) of the same compound?
Answer: 0.53 ± 0.12 mL

Question: What about the “Amount of Output Secretion” value (gastric secretion; 100 mg/kg into the duodenum) of the same compound?
Answer: 22 ± 5.9 μ Eq.

Question: What about the “effect on volume of gastric juice, acid secretion and pH value” (gastric secretion) of the same compound?
Answer: reduce the volume of gastric juice and the acid secretion and increase the pH value

Question: And the “inhibition of ulcer generation caused by water-dipping restriction stress” value ([4]; dose of 25, 50 and 100 mg)?
Answer: inhibits the ulcer generation caused by water-dipping restriction stress

Question: What about the “Percent Inhibition (stress ulcer)” value ([4]; 25 mg/kg) of the same compound?
Answer: 23.5%

Question: What about the “Ulcerous Index” value ([4]; 25 mg/kg) of the same compound?
Answer: 58.0 mm

Question: What about the “Percent Inhibition (stress ulcer)” value ([4]; 50 mg/kg) of the same compound?
Answer: 36.4%

Question: What about the “Ulcerous Index” value ([4]; 50 mg/kg) of the same compound?
Answer: 48.2 mm

Question: And the “Percent Inhibition (stress ulcer)” value ([4]; 100 mg/kg)?
Answer: 66.0%

Question: What about the “Ulcerous Index” value ([4]; 100 mg/kg) of the same compound?
Answer: 25.3 mm

Question: And the LD50 at 168 h (Acute toxicity)?
Answer: 662 mg/kg

Question: For CN(C)CCCn1cc(C#N)c2ccccc2c1=O [Compound C, 4-cyano-2-(3-N,N-dimethylaminopropyl)-1(2H)-isoquinolone tartrate 1/2 hydrate], which “rectal temperature decreased by pretreatment with reserpine” value [5] is on record?
Answer: increases at a dose of 50 and 100 mg/kg significantly the rectal temperature

Question: And the “shift” value [2]?
Answer: shift the hitamine-induced contraction curve determined in guinea pig ileum to the right direction on the figures in parallel

Question: What about the anti-histamine activity [2] of the same compound?
Answer: possess a specific anti-histamine activity

Question: What about the “pH Value (gastric juice)” value (gastric secretion; [7]) of the same compound?
Answer: 1.88 ± 0.10

Question: And the “Amount of Gastric Juice” value (gastric secretion; 100 mg/kg into the duodenum)?
Answer: 1.85 ± 0.35 mL

Question: And the “Amount of Output Secretion” value (gastric secretion; 100 mg/kg into the duodenum)?
Answer: 72 ± 5.3 μ Eq.

Question: And the “effect on volume of gastric juice, acid secretion and pH value” (gastric secretion)?
Answer: reduce the volume of gastric juice and the acid secretion and increase the pH value

Question: And the LD50 at 168 h (Acute toxicity)?
Answer: 699 mg/kg

Question: With CC(Cn1cc(-c2ccccc2)c2ccccc2c1=O)N(C)C (stereo not drawn) [Compound D, 2-(2-N,N-dimethylaminopropyl)-4-phenyl-1(2H)-isoquinolone maleate] as the compound, how does the “inhibition of indomethacin-induced ulcer” value ([6]; 50 mg/kg) read?
Answer: inhibit the indomethacin-induced ulcer

Question: And the “Percent Inhibition (indomethacin ulcer)” value ([6]; 50 mg/kg)?
Answer: 73.0%

Question: What about the “Ulcerous Index” value ([6]; 50 mg/kg, n=8) of the same compound?
Answer: 4.1 mm

Question: What about the LD50 at 168 h (Acute toxicity) of the same compound?
Answer: 505 mg/kg

Question: For “basic aluminum sucrose sulfate [Sucralfate, reference compound]”, which “Percent Inhibition (indomethacin ulcer)” value ([6]; 300 mg/kg) is on record?
Answer: 81.1%

Question: And the “Ulcerous Index” value ([6]; 300 mg/kg)?
Answer: 2.9 mm

Question: With CN1[C@@H]2CC[C@H]1C[C@@H](OC(=O)C(CO)c1ccccc1)C2 (stereo partly drawn) [Atropine, reference compound] as the compound, how does the “pH Value (gastric juice)” value (gastric secretion; 5 mg/kg into the duodenum) read?
Answer: 2.22 ± 0.25

Question: What about the “Amount of Gastric Juice” value (gastric secretion; 5 mg/kg into the duodenum) of the same compound?
Answer: 0.90 ± 0.09 mL

Question: What about the “Amount of Output Secretion” value (gastric secretion; 5 mg/kg into the duodenum) of the same compound?
Answer: 57 ± 6.0 μ Eq.

Question: What about the “Percent Inhibition (stress ulcer)” value ([4]; 5 mg/kg) of the same compound?
Answer: 93.0%

Question: What about the “Ulcerous Index” value ([4]; 5 mg/kg) of the same compound?
Answer: 5.3 mm

Question: For CCN1CCCC1CNC(=O)c1cc(S(N)(=O)=O)ccc1OC (stereo not drawn) [Sulpiride, 5(aminosulfonyl)-N--(1ethyl-2-pyrrolidinyl)-methyl 2-methoxybenzamide, reference compound], which “Ulcerous Index” value ([4]; 100 mg/kg) is on record?
Answer: 71.0 mm

Question: Which “shift” value [2] does the source give for CN(C)CCn1cc(-c2ccccc2)c2ccccc2c1=O [Compound B, 2-(2-N,N-dimethylaminoethyl)-4-phenyl-1(2H)-isoquinolone hydrochloride] here?
Answer: shift the hitamine-induced contraction curve determined in guinea pig ileum to the right direction on the figures in parallel

Question: What about the anti-histamine activity [2] of the same compound?
Answer: possess a specific anti-histamine activity

Question: What about the anti-cholinergic activity [3] of the same compound?
Answer: non-specific anti-cholinergic activity

Question: And the “inhibition of indomethacin-induced ulcer” value ([6]; 50 mg/kg)?
Answer: inhibit the indomethacin-induced ulcer

Question: And the “Percent Inhibition (indomethacin ulcer)” value ([6]; 50 mg/kg)?
Answer: 61.0%

Question: What about the “Ulcerous Index” value ([6]; 50 mg/kg, n=8) of the same compound?
Answer: 6.0 mm

Question: What about the LD50 at 168 h (Acute toxicity) of the same compound?
Answer: 195 mg/kg
